# According to patent US20090209570A1 (priority 2001, published 2009):
# Counter-ions that a name gives are not always drawn. Like-named read-outs stand apart in the source and are kept apart here.
# Legend:
# [1] = molecular target: T1, μ-opioid receptors (Rattus norvegicus, UniProt P33535); experiment: Opioid receptor binding studies with [3H]DAMGO on rat's brain homogenisates
# T1 construct: from tissue; host or cells: rat brain homogenate
# [2] = in vivo; details: rat
# [3] = system: anaesthetised rats; details: rat, in vivo; for respiratory depression at analgesic doses (in words): sc
# [4] = system: rats; experiment: Analgesia test (rat tail flick test); assay type: in vivo; details: for Analgesic effect (in percent) after 10 minutes / Analgesic effect (in percent) after 20 minutes / Analgesic effect (in percent) after 30 minutes / Analgesic effect (in percent) after 60 minutes / Analgesic effect (in percent) after 120 minutes / Analgesic effect (in percent) after 180 minutes: 3 0.5 μg/rat, 4 0.25 μg/rat, rats 120 g; for Analgesic effect (in percent) after 10 minutes / Analgesic effect (in percent) after 20 minutes / Analgesic effect (in percent) after 30 minutes / Analgesic effect (in percent) after 60 minutes / Analgesic effect (in percent) after 120 minutes: morphine 50 μg/rat; for sc/icv: ratio of tail flick ED50 sc to icv
# Protocol: A test on rats was applied (“rat tail flick test”). This test was carried out as previously described (Zs. Fürst et al., Eur. J. Pharmacol. 1993, Vol. 236, pp. 209-215).
# [5] = system: carrageen-induced hyperalgesia on the right hind paw of rats; experiment: Randall-Selitto test (hind-paw withdrawal latency, mechanical stimulation); assay type: in vivo, rat
# Protocol: The Randall-Selitto Test (L. O. Randall and J. J. Selitto, Arch. Int. Pharmacodyn. 1957, Vol. 111, pp. 409-419) was applied to study the analgesic effect on carrageen-induced hyperalgesia on the right hind paw of rats. In this way the “hind-paw withdrawal latency” (HWL; latency period for withdrawing the right hind paw) with mechanical stimulation (e.g. I. Bileviciute-Ljungar and M. Spetea, Br. J. Pharmcol. 2001, Vol. 132, pp. 252-258) is measured.
# [6] = system: rats with ligations around the ischias nerve; experiment: Cold water allodynia test (thermal allodynia); assay type: in vivo, rat
# Protocol: (§1) The tests involve models to test the effect of a substance on neuropathic pain.
# (§2) For both tests ligations were applied around the ischias nerve (G. J. Bennett and Y. K. Xie, Pain 1988, Vol. 33, 87-107).
# Thermal stimulation (cold water) was used to initiate withdrawal of the hind paw of the rats (200-300 g). After 5, 15 and 30 min (after application of the substance) the latency period of the withdrawal of the hind paw was studied (J. C. Hunter et al., Eur. J. Pharmacol., 1997, Vol. 324, 153-160). The substances to be investigated were applied via intraplant (ipl).
# [7] = system: rats with ligations around the ischias nerve; experiment: Von Frey test (mechanical allodynia); assay type: in vivo, rat
# Protocol: as §1, §2
# A slight pressure (2 to 60 g) was exerted on the skin of the hind paw of the rats (200-250 g) using Von Frey hairs and the latency period of withdrawal of the hind paw was studied at various time intervals (5, 15, 30 and 60 minutes after the application of the substance). The substance to be investigated was applied via intraplant (ipl).
# [8] = central, rat tail flick test, intracerebroventricular application, read-out: ED50 (μg/kg, icv)
# [9] = sc, rat tail flick test, subcutaneous application, read-out: ED50 (μg/kg, sc)
# [10] = 20 μg/kg, subcutaneous application
# [11] = 100 μg/rat after subcutaneous application
# [12] = peripherally acting opioid antagonist
# T1 sequence (P33535 whole entry): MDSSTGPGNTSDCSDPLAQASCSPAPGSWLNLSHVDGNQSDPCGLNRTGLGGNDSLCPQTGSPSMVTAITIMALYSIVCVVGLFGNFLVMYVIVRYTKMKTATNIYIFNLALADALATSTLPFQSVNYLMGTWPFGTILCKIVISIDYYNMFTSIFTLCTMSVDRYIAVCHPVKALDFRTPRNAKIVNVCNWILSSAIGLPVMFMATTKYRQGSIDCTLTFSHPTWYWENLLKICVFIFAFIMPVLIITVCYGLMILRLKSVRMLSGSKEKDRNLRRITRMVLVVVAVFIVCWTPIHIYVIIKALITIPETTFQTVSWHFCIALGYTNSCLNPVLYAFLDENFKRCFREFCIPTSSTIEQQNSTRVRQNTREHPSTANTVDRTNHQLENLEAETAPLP
structure (smiles),measurement,setting,value
CO[C@@]12CC[C@@H](N)[C@@H]3Oc4c(O)ccc5c4[C@@]31CCN(C)[C@@H]2C5,melting point,,> 235 °C
"CCOC(=O)CN[C@@H]1CC[C@@]2(OC)[C@H]3Cc4ccc(O)c5c4[C@@]2(CCN3C)[C@H]1O5 (as salt: hydrochloride) [Compound 23, (4,5α-epoxy-3-hydroxy-14β-methoxy-17-methylmorphinan-6β-ylamino)-acetic acid-ethylester dihydrochloride]",melting point,,> 200 °C
"CO[C@@]12CCC(NCC(=O)OC(C)(C)C)[C@@H]3Oc4c(O)ccc5c4[C@@]31CCN(C)C2C5 (stereo in doubt) [Compound 2, (4,5α-epoxy-3-hydroxy-14β-methoxy-17-methylmorphinan-6β-ylamino)-acetic acid-tert.-butylester]",Ki,[1],1.3 nM
"CO[C@@]12CC[C@H](NCC(=O)OC(C)(C)C)[C@@H]3Oc4c(O)ccc5c4[C@@]31CCN(C)[C@@H]2C5 [Compound 1, (4,5α-epoxy-3-hydroxy-14β-methoxy-17-methylmorphinan-6α-ylamino)-acetic acid-tert.-butylester]",Ki,[1],0.48 nM
"CO[C@@]12CC[C@H](NCC(=O)O)[C@@H]3Oc4c(O)ccc5c4[C@@]31CCN(C)C2C5 [Compound 3, (4,5α-epoxy-3-hydroxy-14β-methoxy-17-methylmorphinan-6α-ylamino)-acetic acid sesqui(trifluoroacetate)]",ED50,[2],0.00083 mg/kg
same,ED50,[2]; sc,1 mg/kg
same,respiratory depression at analgesic doses (in words),[3],not able to initiate a respiratory depression
same,ED50,[4]; [8],0.49 µg/kg
same,passage of the blood-brain barrier (concluded from sc/icv figures),[4]; conclusion from tail flick sc/icv ratio,only overcome the blood-brain barrier in a very restricted manner
same,Analgesic effect (in percent) after 10 minutes,[4]; icv,46%
same,Analgesic effect (in percent) after 20 minutes,[4]; icv,62%
same,Analgesic effect (in percent) after 30 minutes,[4]; icv,59%
same,Analgesic effect (in percent) after 60 minutes,[4]; icv,100%
same,Analgesic effect (in percent) after 120 minutes,[4]; icv,100%
same,Analgesic effect (in percent) after 180 minutes,[4]; icv,90%
same,analgesic activity (in words),[4]; rat tail flick test,very high analgesic activity
same,sc/icv,[4],176
same,ED50,[4]; [9],86 µg/kg
"CO[C@@]12CC[C@@H](NCC(=O)O)[C@@H]3Oc4c(O)ccc5c4[C@@]31CCN(C)C2C5 [Compound 4, (4,5α-epoxy-3-hydroxy-14β-methoxy-17-methylmorphinan-6β-ylamino)-acetic acid sesqui(trifluoroacetate)]",ED50,[2],0.00042 mg/kg
same,ED50,[2]; sc,0.5 mg/kg
same,analgesic activity (rise in HWL of at least 100% taken as significant),[5]; [10],significant analgesic activity
same,duration of analgesic effect,[5]; [10],approx. 14 hours
same,passage of the blood-brain barrier (concluded from naloxone methiodide antagonism),[5]; conclusion from the Randall-Selitto test,cannot overcome the blood-brain barrier
same,anti-allodynic activity (rise of at least 100% in latency of hind paw withdrawal taken as significant),[6]; [11],significant anti-allodynic activity
same,anti-allodynic effect after naloxone methiodide (ipl),[6]; [12],completely neutralise
same,respiratory depression at analgesic doses (in words),[3],not able to initiate a respiratory depression
same,anti-allodynic activity (rise of at least 100% in latency of hind paw withdrawal taken as significant),[7]; [11],significant anti-allodynic activity
same,anti-allodynic effect after naloxone methiodide (ipl),[7]; [12],completely neutralise
same,ED50,[4]; [8],0.42 µg/kg
same,Analgesic effect (in percent) after 10 minutes,[4]; icv,61%
same,Analgesic effect (in percent) after 20 minutes,[4]; icv,74%
same,Analgesic effect (in percent) after 30 minutes,[4]; icv,76%
same,Analgesic effect (in percent) after 60 minutes,[4]; icv,100%
same,Analgesic effect (in percent) after 120 minutes,[4]; icv,100%
same,Analgesic effect (in percent) after 180 minutes,[4]; icv,90%
same,analgesic activity (in words),[4]; rat tail flick test,very high analgesic activity
same,times as active as morphine after intracerebroventricular application (icv),"[4]; rat tail flick test, icv, relative to morphine",238 times
same,times as active as morphine after subcutaneous application (sc),"[4]; rat tail flick test, sc, relative to morphine",68 times
same,sc/icv,[4],67
same,ED50,[4]; [9],28 µg/kg
"CO[C@@]12CC[C@H](N[C@@H](C)C(=O)O)[C@@H]3Oc4c(O)ccc5c4[C@@]31CCN(C)C2C5 [Compound 7, (2′S)-2′-(4,5α-epoxy-3-hydroxy-14β-methoxy-17-methylmorphinan-6α-ylamino)-propionic acid bis(tetrafluoroborate)]",ED50,[4]; [8],0.75 µg/kg
same,analgesic activity (in words),[4]; rat tail flick test,very high analgesic activity
same,sc/icv,[4],133
same,ED50,[4]; [9],100 µg/kg
"CO[C@@]12CC[C@@H](N[C@@H](C)C(=O)O)[C@@H]3Oc4c(O)ccc5c4[C@@]31CCN(C)C2C5 [Compound 8, (2′S)-2′-(4,5α-epoxy-3-hydroxy-14β-methoxy-17-methylmorphinan-6β-ylamino)-propionic acid bis(tetrafluoroborate)]",ED50,[4]; [8],0.67 µg/kg
same,analgesic activity (in words),[4]; rat tail flick test,very high analgesic activity
same,sc/icv,[4],746
same,ED50,[4]; [9],500 µg/kg
"CO[C@@]12CC[C@H](N[C@@H](Cc3ccccc3)C(=O)O)[C@@H]3Oc4c(O)ccc5c4[C@@]31CCN(C)C2C5 [Compound 11, (2′S)-2′-(4,5α-epoxy-3-hydroxy-14β-methoxy-17-methylmorphinan-6α-ylamino)-3′-phenylpropionic acid bis(tetrafluoroborate)]",Ki,[1],0.95 nM
CO[C@@]12CC[C@@H](NC(=NC(=O)OC(C)(C)C)NC(=O)OC(C)(C)C)[C@@H]3Oc4c(O)ccc5c4[C@@]31CCN(C)C2C5 [Compound 16],Ki,"[1]; [3H]DAMGO as radio-ligand, rat's brain homogenisates, read-out: Ki (nM) (μ-receptors)",0.61 nM
"CO[C@@]12CC[C@@H](NC(=N)N)[C@@H]3Oc4c(O)ccc5c4[C@@]31CCN(C)[C@@H]2C5 [Compound 17, 4,5α-epoxy-6β-guanidinyl-14β-methoxy-17-methylmorphinan-3-ol dihydrochloride]",Ki,[1],0.25 nM
"CCOC(=O)CN[C@H]1CC[C@@]2(OC)[C@H]3Cc4ccc(O)c5c4[C@@]2(CCN3C)[C@H]1O5 [Compound 22, (4,5α-epoxy-3-hydroxy-14β-methoxy-17-methylmorphinan-6α-ylamino)-acetic acid-ethylester dihydrochloride]",Ki,[1],0.21 nM
"CCOC(=O)CN[C@@H]1CC[C@@]2(OC)[C@H]3Cc4ccc(O)c5c4[C@@]2(CCN3C)[C@H]1O5 [Compound 23, (4,5α-epoxy-3-hydroxy-14β-methoxy-17-methylmorphinan-6β-ylamino)-acetic acid-ethylester dihydrochloride]",Ki,[1],0.8 nM
"O=C(O)CN[C@@H]1CC[C@@]2(OCCCc3ccccc3)[C@H]3Cc4ccc(O)c5c4[C@@]2(CCN3CC2CC2)[C@H]1O5 [Compound 38, {17-cyclopropylmethyl-4,5α-epoxy-3-hydroxy-14β-[(3-phenylpropyl)oxy]-morphinan-6β-ylamino}acetic acid dihydrochloride]",Ki,[1],0.24 nM
"CN1CC[C@]23c4c5ccc(O)c4O[C@H]2[C@@H](O)C=C[C@H]3[C@H]1C5 [Morphine, morphine, reference compound]",ED50,[2],0.083 mg/kg
same,ED50,[2]; sc,2.8 mg/kg
same,sc/icv,[3],34
same,ED50,[4]; [8],100 µg/kg
same,Analgesic effect (in percent) after 10 minutes,[4]; icv,57%
same,Analgesic effect (in percent) after 20 minutes,[4]; icv,91%
same,Analgesic effect (in percent) after 30 minutes,[4]; icv,74%
same,Analgesic effect (in percent) after 60 minutes,[4]; icv,59%
same,Analgesic effect (in percent) after 120 minutes,[4]; icv,20%
same,sc/icv,[4],19
same,ED50,[4]; [9],1900 µg/kg
